Patent US10450378B2, “Cytotoxic and anti-mitotic compounds, and methods of using the same” (priority 2014, dated 2019)
Where two headings read alike, the source gives them in different places.

How the values were obtained:
Assay in all cases: Cellular cytotoxicity of compounds of Formula I, Example 3.1
Assay type in all cases: cell-based
[1] = test system: Human T-cell leukemia cell line Jurkat; conditions: Homo sapiens, Jurkat, read-out: EC50 (nM) Jurkat
Protocol: (§1) Compounds were tested on one or more of Human T-cell leukemia cell line Jurkat (ATCC: TIB-152); Human breast cancer cell lines HCC1954 (ATCC: CRL-2338) and JIMT-1 (DSMZ: ACC 589); Human Pancreatic cell line BxPC-3 (ATCC: CRL.1687), Human ovarian adenocarcinoma cell line SK-OV-3 (ATCC: HTB-77) and Human gastric carcinoma cell line NCI-N87 (ATCC: CRL. 5822); to assess their cytotoxicity.
(§2) Briefly, cells were obtained from commercial sources and cultured as described in the product sheet provided. Cells were removed from their culture vessels and the resulting cell suspension was counted using a ViCell (Beckman Coulter), then seeded at 25,000 cells/mL (2,500 cells/well) in Costar 3904 black walled, flat bottomed 96-well plates (cells were seeded in the inner 60 wells of 96-well TC plates, and outer edge wells filled with water). Adherent cell lines were incubated for one night at 37° C./5% CO2 atmosphere to allow the cells to attach to the microtiter plate surface, while suspension (Jurkat) cells were plated immediately before use. Cytotoxins were dissolved and serially diluted in dimethyl sulfoxide and then the solutions were added to complete growth medium at five-times the desired maximum final concentration. The cytotoxins were then titrated in growth medium, normally 1:3, over eight steps. A control with no test article present (growth medium alone) was included on each microtiter plate in sextuplicate. The prepared toxin titrations were added (25 μL/well) in triplicate to each cell line assayed. The cells and titrations were incubated at 37° C./5% CO2 for three nights (Jurkat) and five nights (all other cell lines). After the incubation, cell viability was measured using CellTiter-Glo® by adding 30 μL of prepared CellTiter-Glo® reagent to each assay well. The mixtures were incubated for at least twenty minutes in the dark prior to measuring emitted luminescence using a microplate luminometer (500 ms integration time). The collected relative luminescence units (RLU) were converted to % cytotoxicity using the growth medium alone control mentioned above (% Cytotoxicity=1-[well RLU/average medium alone control RLU]×100%).

[2] = test system: Human gastric carcinoma cell line NCI-N87; conditions: five nights, CellTiter-Glo
Protocol: as §1, §2

[3] = test system: Human Pancreatic cell line BxPC-3; conditions: five nights, CellTiter-Glo
Protocol: as §1, §2

| Structure (SMILES) | EC50 ([1]; three nights, CellTiter-Glo) [nM] | EC50 [2] [nM] | EC50 [3] [nM] | EC50 [1] [nM] |
| --- | --- | --- | --- | --- |
| CC[C@H](C)[C@@H]([C@@H](CC(=O)N1CCC[C@H]1[C@H](OC)[C@@H](C)C(=O)NS(=O)(=O)c1ccc(C(=O)OC)cc1)OC)N(C)C(=O)[C@@H](NC(=O)[C@H](C(C)C)N(C)C)C(C)C [Compound 34, Methyl 4-(N-((2R,3R)-3-((S)-1-((3R,4S,5S)-4-((S)-2-((S)-2-(Dimethylamino)-3-methylbutanamido)-N,3-dimethylbutanamido)-3-methoxy-5-methylheptanoyl)pyrrolidin-2-yl)-3-methoxy-2-methylpropanoyl)sulfamoyl)benzoate] | > 100 | > 300 | > 300 |  |
| CC[C@H](C)[C@@H]([C@@H](CC(=O)N1CCC[C@H]1[C@H](OC)[C@@H](C)C(=O)N[C@@H](Cc1ccccc1)C(=O)NS(=O)(=O)c1ccc(C2(NC(=O)C(F)(F)F)CC2)cc1)OC)N(C)C(=O)[C@@H](NC(=O)[C@H](C(C)C)N(C)C)C(C)C [Compound 31, (S)-2-((S)-2-(Dimethylamino)-3-methylbutanamido)-N-((3R,4S,5S)-3-methoxy-1-((S)-2-((1R,2R)-1-methoxy-2-methyl-3-oxo-3-((S)-1-oxo-3-phenyl-1-(4-(1-(2,2,2-trifluoroacetamido)cyclopropyl)phenylsulfonamido)propan-2-ylamino)propyl)pyrrolidin-1-yl)-5-methyl-1-oxoheptan-4-yl)-N,3-dimethylbutanamide] |  |  |  | 31.1 |
| CC[C@H](C)[C@@H]([C@@H](CC(=O)N1CCC[C@H]1[C@H](OC)[C@@H](C)C(=O)NS(=O)(=O)c1ccc(N)cc1)OC)N(C)C(=O)[C@@H](NC(=O)[C@H]1CCCCN1C(C)C)C(C)C [Compound 16, (R)-N-((S)-1-(((3R,4S,5S)-1-((S)-2-((1R,2R)-3-((4-Aminophenyl)sulfonamido)-1-methoxy-2-methyl-3-oxopropyl)pyrrolidin-1-yl)-3-methoxy-5-methyl-1-oxoheptan-4-yl)(methyl)amino)-3-methyl-1-oxobutan-2-yl)-1-isopropylpiperidine-2-carboxamide] | 11.5 | 14.4 | 17 |  |
| CC[C@H](C)[C@@H]([C@@H](CC(=O)N1CCC[C@H]1[C@H](OC)[C@@H](C)C(=O)NS(=O)(=O)c1ccc(C2(NC(=O)C(F)(F)F)CC2)cc1)OC)N(C)C(=O)[C@@H](NC(=O)[C@H](C(C)C)N(C)C)C(C)C [Compound 29, (S)-2-((S)-2-(Dimethylamino)-3-methylbutanamido)-N-((3R,4S,5S)-3-methoxy-1-((S)-2-((1R,2R)-1-methoxy-2-methyl-3-oxo-3-(4-(1-(2,2,2-trifluoroacetamido)cyclopropyl)phenylsulfonamido)propyl)pyrrolidin-1-yl)-5-methyl-1-oxoheptan-4-yl)-N,3-dimethylbutanamide] | 22.1 |  |  |  |
| CC[C@H](C)[C@@H]([C@@H](CC(=O)N1CCC[C@H]1[C@H](OC)[C@@H](C)C(=O)N[C@@H](Cc1ccccc1)C(=O)NS(=O)(=O)c1ccc(CN)cc1)OC)N(C)C(=O)[C@@H](NC(=O)[C@H](C(C)C)N(C)C)C(C)C [Compound 24, (S)-N-((3R,4S,5S)-1-((S)-2-((1R,2R)-3-(((S)-1-((4-(Aminomethyl)phenyl)sulfonamido)-1-oxo-3-phenylpropan-2-yl)amino)-1-methoxy-2-methyl-3-oxopropyl)pyrrolidin-1-yl)-3-methoxy-5-methyl-1-oxoheptan-4-yl)-2-((S)-2-(dimethylamino)-3-methylbutanamido)-N,3-dimethylbutanamide] | ~100 | > 100 | > 100 |  |
| CC[C@H](C)[C@@H]([C@@H](CC(=O)N1CCC[C@H]1[C@H](OC)[C@@H](C)C(=O)N[C@@H](Cc1ccccc1)C(=O)NS(=O)(=O)Cc1ccc(CNC(=O)C(F)(F)F)cc1)OC)N(C)C(=O)[C@@H](NC(=O)[C@H](C(C)C)N(C)C)C(C)C [Compound 27, (S)-2-((S)-2-(Dimethylamino)-3-methylbutanamido)-N-((3R,4S,5S)-3-methoxy-1-((S)-2-((1R,2R)-1-methoxy-2-methyl-3-oxo-3-(((S)-1-oxo-3-phenyl-1-(((4-((2,2,2-trifluoroacetamido)methyl)phenyl)methyl)sulfonamido)propan-2-yl)amino)propyl)pyrrolidin-1-yl)-5-methyl-1-oxoheptan-4-yl)-N,3-dimethylbutanamide] |  | 17.4 | 19 | 24.2 |
| CC[C@H](C)[C@@H]([C@@H](CC(=O)N1CCC[C@H]1[C@H](OC)[C@@H](C)C(=O)N[C@@H](Cc1ccccc1)C(=O)NS(=O)(=O)Cc1ccc(CN)cc1)OC)N(C)C(=O)[C@@H](NC(=O)[C@H](C(C)C)N(C)C)C(C)C [Compound 28, (S)-N-((3R,4S,5S)-1-((S)-2-((1R,2R)-3-(((S)-1-(((4-(Aminomethyl)phenyl)methyl)sulfonamido)-1-oxo-3-phenylpropan-2-yl)amino)-1-methoxy-2-methyl-3-oxopropyl)pyrrolidin-1-yl)-3-methoxy-5-methyl-1-oxoheptan-4-yl)-2-((S)-2-(dimethylamino)-3-methylbutanamido)-N,3-dimethylbutanamide] | ~100 | > 100 | > 100 |  |
| CC[C@H](C)[C@@H]([C@@H](CC(=O)N1CCC[C@H]1[C@H](OC)[C@@H](C)C(=O)NS(=O)(=O)c1ccc(N)cc1)OC)N(C)C(=O)[C@@H](NC(=O)C(C)(C)N)C(C)C [Compound 17, (S)-2-(2-Amino-2-methylpropanamido)-N-((3R,4S,5S)-1-((S)-2-((1R,2R)-3-((4-aminophenyl)sulfonamido)-1-methoxy-2-methyl-3-oxopropyl)pyrrolidin-1-yl)-3-methoxy-5-methyl-1-oxoheptan-4-yl)-N,3-dimethylbutanamide] | 30.5 | > 100 | > 100 |  |
| CC[C@H](C)[C@@H]([C@@H](CC(=O)N1CCC[C@H]1[C@H](OC)[C@@H](C)C(=O)NS(=O)(=O)Cc1ccc(CNC(=O)C(F)(F)F)cc1)OC)N(C)C(=O)[C@@H](NC(=O)[C@H](C(C)C)N(C)C)C(C)C [Compound 25, (S)-2-((S)-2-(Dimethylamino)-3-methylbutanamido)-N-((3R,4S,5S)-3-methoxy-1-((S)-2-((1R,2R)-1-methoxy-2-methyl-3-oxo-3-(((4-((2,2,2-trifluoroacetamido)methyl)phenyl)methyl)sulfonamido)propyl)pyrrolidin-1-yl)-5-methyl-1-oxoheptan-4-yl)-N,3-dimethylbutanamide] | 34.3 | > 100 | > 100 |  |
| CC[C@H](C)[C@@H]([C@@H](CC(=O)N1CCC[C@H]1[C@H](OC)[C@@H](C)C(=O)NS(=O)(=O)c1ccc(N)cc1)OC)N(C)C(=O)[C@@H](NC(=O)[C@@H](NC)C(C)C)C(C)C [Compound 20, (S)-N-((3R,4S,5S)-1-((S)-2-((1R,2R)-3-((4-Aminophenyl)sulfonamido)-1-methoxy-2-methyl-3-oxopropyl)pyrrolidin-1-yl)-3-methoxy-5-methyl-1-oxoheptan-4-yl)-N,3-dimethyl-2-((S)-3-methyl-2-(methylamino)butanamido)butanamide] | > 100 | > 300 | > 300 |  |
| CC[C@H](C)[C@@H]([C@@H](CC(=O)N1CCC[C@H]1[C@H](OC)[C@@H](C)C(=O)NS(=O)(=O)c1ccc(C2(N)CC2)cc1)OC)N(C)C(=O)[C@@H](NC(=O)[C@H](C(C)C)N(C)C)C(C)C [Compound 30, (S)-N-((3R,4S,5S)-1-((S)-2-((1R,2R)-3-(4-(1-Aminocyclopropyl)phenylsulfonamido)-1-methoxy-2-methyl-3-oxopropyl)pyrrolidin-1-yl)-3-methoxy-5-methyl-1-oxoheptan-4-yl)-2-((S)-2-(dimethylamino)-3-methylbutanamido)-N,3-dimethylbutanamide] | > 100 |  |  |  |
| CC[C@H](C)[C@@H]([C@@H](CC(=O)N1CCC[C@H]1[C@H](OC)[C@@H](C)C(=O)N[C@@H](Cc1ccccc1)C(=O)NS(=O)(=O)c1ccc(C2(N)CC2)cc1)OC)N(C)C(=O)[C@@H](NC(=O)[C@H](C(C)C)N(C)C)C(C)C [Compound 32, (S)-N-((3R,4S,5S)-1-((S)-2-((1R,2R)-3-((S)-1-(4-(1-Aminocyclopropyl)phenylsulfonamido)-1-oxo-3-phenylpropan-2-ylamino)-1-methoxy-2-methyl-3-oxopropyl)pyrrolidin-1-yl)-3-methoxy-5-methyl-1-oxoheptan-4-yl)-2-((S)-2-(dimethylamino)-3-methylbutanamido)-N,3-dimethylbutanamide] | > 100 |  |  |  |
